“And” between values parts separate entries of the source, which are not always exact repeats. Equal entries are not always repeated. Where two headings read alike, the source gives them in different places.
How the values were obtained:
[1] = biological target: CfEcR-DEF mutant F48Y (Choristoneura fumiferana, UniProt O77255, F331Y); test: cell-based
Procedure: (§1) This construct was prepared in the same way as in switch 1.1 above except wild-type CfEcR-DEF was replaced with mutant CfEcR-DEF comprising a ligand binding domain comprising a substitution mutation selected from Table 1 below.
(§2) DNAs were transfected into mouse NIH3T3 cells (ATCC) as follows. Standard methods for culture and maintenance of the cells were followed. Cells were harvested and plated 96-well plates at 2,500 cells per well, in 50 μL of growth medium containing 10% fetal bovine serum (FBS). Twenty-four hours later, the cells were treated with 35 μL of serum-free growth medium containing either dimethylsulfoxide (DMSO; control) or a DMSO solution of ligand. The cells were then transfected using Superfect (Qiagen Inc.) transfection reagent. For each well, 0.625 μL of Superfect was mixed with 14.2 μL of serum-free growth medium. 0.16 μg of reporter construct and 0.04 μg of each receptor construct were added to the transfection reagent mix. The contents of the transfection mix were mixed in a vortex mixer and let stand at room temperature for 30 minutes. At the end of incubation, 15 μL of transfection mix was added to the cells. The cells were maintained at 37° C. and 5% CO2 for 48 hours in 5% FBS.
(§3) Reporter Assays: Cells were harvested 40 hours after adding ligands. 125 μL of passive lysis buffer (part of Dual-Luciferase reporter assay system from Promega Corporation) were added to each well of the […] plate. The plates were placed on a rotary shaker for 15 minutes. Twenty μL of lysate were assayed. Luciferase activity was measured using Dual-Luciferase reporter assay system from Promega Corporation following the manufacturer's instructions. Fold induction (FI) activities were calculated by dividing relative light units (“RLU”) in ligand treated cells with RLU in DMSO treated cells (untreated control).

[2] = biological target: CfEcR-DEF mutant F109M (Choristoneura fumiferana, UniProt O77255, F392M); test: cell-based
Procedure: as §1, §2, §3

[3] = biological target: CfEcR-DEF mutant W238E (Choristoneura fumiferana, UniProt O77255, W521E); test: cell-based
Procedure: as §1, §2, §3

[4] = biological target: CfEcR-DEF mutant A110N (Choristoneura fumiferana, UniProt O77255, A393N); test: cell-based
Procedure: as §1, §2, §3

[5] = biological target: CfEcR-DEF mutant F48W (Choristoneura fumiferana, UniProt O77255, F331W); test: cell-based
Procedure: as §1, §2, §3

[6] = biological target: CfEcR-DEF mutant V128F (Choristoneura fumiferana, UniProt O77255, V411F); test: cell-based
Procedure: as §1, §2, §3

[7] = biological target: CfEcR-DEF mutant V96E (Choristoneura fumiferana, UniProt O77255, V379E); test: cell-based
Procedure: as §1, §2, §3

[8] = biological target: CfEcR-DEF mutant Y120M (Choristoneura fumiferana, UniProt O77255, Y403M); test: cell-based
Procedure: as §1, §2, §3

[9] = biological target: CfEcR-DEF mutant T52P (Choristoneura fumiferana, UniProt O77255, T335P); test: cell-based
Procedure: as §1, §2, §3

[10] = biological target: CfEcR-DEF mutant L132M (Choristoneura fumiferana, UniProt O77255, L415M); test: cell-based; format: cell-based; settings: for Rel Max FI: mutant L132M; for Emax: NIH3T3, 40 h, read-out: Rel Max FI, mutant L132M
Procedure: as §1, §2, §3

[11] = biological target: CfEcR-DEF mutant M125W (Choristoneura fumiferana, UniProt O77255, M408W); test: GAL4-driven luciferase reporter assay in NIH3T3 cells; format: cell-based
Procedure: as §1, §2, §3

[12] = biological target: CfEcR-DEF mutant T52V/A110P (Choristoneura fumiferana, UniProt O77255, A393P/T335V); test: as above; format: cell-based
Procedure: as §1, §2, §3

[13] = biological target: CfEcR-DEF mutant V107I/Y127E/T52V (Choristoneura fumiferana, UniProt O77255, T335V/V390I/Y410E); test: as above; format: cell-based
Procedure: as §1, §2, §3

[14] = biological target: CfEcR-DEF mutant F48N (Choristoneura fumiferana, UniProt O77255, F331N); test: as above; format: cell-based
Procedure: as §1, §2, §3

[15] = biological target: CfEcR-DEF mutant M125P (Choristoneura fumiferana, UniProt O77255, M408P); test: cell-based
Procedure: as §1, §2, §3

[16] = biological target: CfEcR-DEF mutant F109N (Choristoneura fumiferana, UniProt O77255, F392N); test: cell-based
Procedure: as §1, §2, §3

[17] = biological target: CfEcR-DEF mutant V107I/Y127E/G (Choristoneura fumiferana, UniProt O77255, INS541G/V390I/Y410E); test: GAL4-driven luciferase reporter assay in NIH3T3 cells; format: cell-based
Procedure: as §1
The Gal-4-CfEcR-DEF(VYG) mutant was created by inserting an extra glycine at the C-terminal end of EcR substitution mutant V107I/Y127E [CfECR(VY)] by PCR. Essentially, this was done in two steps: PCR-amplification of CfEcR-DEF(VYG) and substitution of the CfEcR(VY) in the vector GAL4-CfEcR DEF(VY) pBIND 1-9 with the PCR-amplified CfEcR-DEF(VYG). The CfEcR-DEF region (with the extra glycine) was amplified by using the vector GAL4-CfEcR DEF(VY) pBIND 1-9 as template and the following PCR primers: […]
as §2, §3

[18] = relative to max fold induction of GS-E ligand
[19] = NIH3T3, 40 h, read-out: Rel Max FI

Chain of CfEcR-DEF mutant A110N (O77255 entry or part of it A393N): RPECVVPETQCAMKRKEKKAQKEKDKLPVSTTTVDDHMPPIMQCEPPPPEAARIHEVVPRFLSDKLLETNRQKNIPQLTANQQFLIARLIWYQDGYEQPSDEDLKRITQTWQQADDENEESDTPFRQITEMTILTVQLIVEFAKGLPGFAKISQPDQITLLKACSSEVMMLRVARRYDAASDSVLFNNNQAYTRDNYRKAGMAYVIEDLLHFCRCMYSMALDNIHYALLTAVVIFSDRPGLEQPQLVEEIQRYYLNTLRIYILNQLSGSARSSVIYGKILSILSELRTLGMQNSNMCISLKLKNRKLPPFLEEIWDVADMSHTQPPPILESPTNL
Chain of CfEcR-DEF mutant A110N (P28702 299-449, stated change not applied, further chain): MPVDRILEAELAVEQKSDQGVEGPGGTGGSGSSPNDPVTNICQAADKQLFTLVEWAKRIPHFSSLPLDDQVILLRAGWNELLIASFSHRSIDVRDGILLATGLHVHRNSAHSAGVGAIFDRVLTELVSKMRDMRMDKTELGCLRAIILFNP
Chain of CfEcR-DEF mutant F48Y (O77255 entry or part of it F331Y): as the sequence (O77255 entry or part of it A393N) above, with F125Y, N187A counted along it
Chain of CfEcR-DEF mutant F48Y (P28702 299-449, further chain): as the sequence (P28702 299-449, stated change not applied, further chain) above
Chain of CfEcR-DEF mutant L132M (O77255 entry or part of it L415M): as the sequence (O77255 entry or part of it A393N) above, with N187A, L209M counted along it
Chain of CfEcR-DEF mutant L132M (P28702 298-449, further chain): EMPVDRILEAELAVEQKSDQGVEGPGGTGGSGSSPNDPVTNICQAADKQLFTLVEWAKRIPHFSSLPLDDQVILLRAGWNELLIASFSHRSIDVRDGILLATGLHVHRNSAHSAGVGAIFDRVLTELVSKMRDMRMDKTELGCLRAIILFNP
Chain of CfEcR-DEF mutant T52V/A110P (O77255 entry or part of it T335V/A393P): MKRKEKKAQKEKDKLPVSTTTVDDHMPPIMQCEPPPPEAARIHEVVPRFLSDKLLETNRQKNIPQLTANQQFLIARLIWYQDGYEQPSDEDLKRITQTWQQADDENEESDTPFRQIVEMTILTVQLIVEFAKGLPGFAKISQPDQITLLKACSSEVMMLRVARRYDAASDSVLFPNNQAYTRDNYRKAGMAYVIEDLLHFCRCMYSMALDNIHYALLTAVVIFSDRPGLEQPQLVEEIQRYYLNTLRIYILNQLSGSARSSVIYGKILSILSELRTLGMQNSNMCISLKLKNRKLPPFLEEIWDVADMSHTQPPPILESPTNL
Chain of CfEcR-DEF mutant T52V/A110P (P28702 299-449, stated change not applied, further chain): as the sequence (P28702 299-449, stated change not applied, further chain) above
Chain of CfEcR-DEF mutant F48N (O77255 entry or part of it F331N): as the sequence (O77255 entry or part of it A393N) above, with F125N, N187A counted along it
Chain of CfEcR-DEF mutant F48N (P28702 299-449, further chain): as the sequence (P28702 299-449, stated change not applied, further chain) above
Chain of CfEcR-DEF mutant M125W (O77255 entry or part of it M408W): as the sequence (O77255 entry or part of it A393N) above, with N187A, M202W counted along it
Chain of CfEcR-DEF mutant M125W (P28702 299-449, further chain): as the sequence (P28702 299-449, stated change not applied, further chain) above
Chain of CfEcR-DEF mutant V96E (O77255 entry or part of it V379E): as the sequence (O77255 entry or part of it T335V/A393P) above, with V117T, V161E, P175A counted along it
Chain of CfEcR-DEF mutant V96E (P28702 299-449, further chain): as the sequence (P28702 299-449, stated change not applied, further chain) above
Chain of CfEcR-DEF mutant T52P (P28702 298-449): as the sequence (P28702 298-449, further chain) above
Chain of CfEcR-DEF mutant T52P (O77255 entry or part of it T335P): as the sequence (O77255 entry or part of it A393N) above, with T129P, N187A counted along it
Chain of CfEcR-DEF mutant W238E (P28702 299-449): as the sequence (P28702 299-449, stated change not applied, further chain) above
Chain of CfEcR-DEF mutant W238E (O77255 entry or part of it W521E): as the sequence (O77255 entry or part of it T335V/A393P) above, with V117T, P175A, W303E counted along it

CC(C)CC[C@@H](O)[C@](C)(O)[C@H]1CC[C@@]2(O)C3=CC(=O)[C@@H]4C[C@@H](O)[C@@H](O)C[C@]4(C)[C@H]3CC[C@]12C [PonA, ponasterone A]
EC50 ([1]; mutant F48Y, read-out: EC50): ~10 µM | Rel Max FI ([1]; mutant F48Y, relative to max fold induction of GS-E ligand): 0.33 | EC50 ([2]; mutant F109M, read-out: EC50): ~20 µM | Rel Max FI ([2]; mutant F109M, relative to max fold induction of GS-E ligand): 0.16 | Rel Max FI ([3]; mutant W238E): 0 | EC50 ([3]; mutant W238E, read-out: EC50): > 33 µM | EC50 ([4]; mutant A110N, read-out: EC50): > 33 µM | Rel Max FI ([4]; mutant A110N, relative to max fold induction of GS-E ligand): 0 | EC50 ([5]; mutant F48W, read-out: EC50): ~10 µM | Rel Max FI ([5]; mutant F48W, relative to max fold induction of GS-E ligand): 0.65 | Rel Max FI ([6]; mutant V128F): 0.03 | EC50 ([6]; mutant V128F, read-out: EC50): > 33 µM | Rel Max FI ([7]; mutant V96E): 0.02 | EC50 ([7]; mutant V96E, read-out: EC50): > 33 µM | Rel Max FI ([8]; mutant Y120M): 0.04 | EC50 ([8]; mutant Y120M, read-out: EC50): > 33 µM | Rel Max FI ([9]; mutant T52P): 0.03 | EC50 ([9]; mutant T52P, read-out: EC50): > 33 µM | Rel Max FI [10]: 0.01 | Rel Max FI [10, 18]: 0.57 | Rel Max FI ([11]; mutant M125W): 0 | EC50 ([11]; mutant M125W, read-out: EC50): > 33 µM | EC50 ([12]; mutant T52V/A110P, read-out: EC50): > 33 µM | Rel Max FI ([12]; mutant T52V/A110P, relative to max fold induction of GS-E ligand): 0 | EC50 ([13]; mutant V107I/Y127E/T52V, read-out: EC50): ~1 µM | Rel Max FI ([13]; mutant V107I/Y127E/T52V, relative to max fold induction of GS-E ligand): 0.67 | Rel Max FI ([14]; mutant F48N): 0.17 | EC50 ([14]; mutant F48N, read-out: EC50): ~20 µM | Rel Max FI ([15]; mutant M125P): 0.7 | EC50 ([15]; mutant M125P, read-out: EC50): > 33 µM | Rel Max FI ([16]; mutant F109N): 0 | EC50 ([16]; mutant F109N, read-out: EC50): > 33 µM | EC50 ([17]; mutant V107I/Y127E/G, read-out: EC50): 1.65 µM | Rel Max FI ([17]; mutant V107I/Y127E/G, relative to max fold induction of GS-E ligand): 0.67

CCc1cccc(C(=O)NN(C(=O)c2cc(C)cc(C)c2)C(C)(C)C)c1C [RG-101691, 3,5-Dimethyl-benzoic acid N-tert-butyl-N′-(3-ethyl-2-methyl-benzoyl)-hydrazide]
EC50 [1]: 0.93 µM | Emax [1, 19]: 69% | EC50 [2]: 0.65 µM | Emax [2, 19]: 75% | EC50 [3]: ~8 µM | Emax [3, 19]: 71% | EC50 [4]: 0.88 µM | Emax [4, 19]: 99% | EC50 [5]: 1.53 µM | Emax [5, 19]: 74% | EC50 ([6]; EC50, mutant V128F): ~8.3 µM and 5.4 µM | Emax [6, 19]: 4% | EC50 [7]: 1.62 µM | Emax [7, 19]: 81% | EC50 [8]: ~10 µM | Emax [8, 19]: 30% | EC50 [9]: > 33 µM | Emax [9, 19]: 2% | Emax [10]: 8% | Emax [10, 18]: 77% | EC50 [11]: 4.94 µM | Emax [11, 19]: 74% | EC50 [12]: 0.24 µM | Emax [12, 19]: 66% | EC50 [13]: 0.02 µM | Emax [13, 19]: 88% | EC50 [14]: 1.73 µM | Emax [14, 19]: 88% | EC50 [15]: > 33 µM | Emax [15, 19]: 525% | EC50 [16]: 3.95 µM | Emax [16, 19]: 85% | EC50 [17]: 0.02 µM | Emax [17, 19]: 85%

Source: US9163256B2, “Mutant receptors and their use in a nuclear receptor-based inducible gene expression system” (priority 2004, dated 2015)
